Here are results for 35 compounds from patent US12065399B2, “Arylsulfonamide derivatives” (Hoffmann-La Roche Inc., priority 2019, dated 2024).

This assay addresses human mGlu4 receptor (Homo sapiens (Human), UniProt Q14833). The assay can be described thus: Intracellular Ca2+ mobilization assay (FLIPR), mGlu4 NAM. The class given is cell-based. To be noted: HEK-293 cells stably transfected with human mGlu4; inhibition of L-AP4 (EC80) response; IC50. The procedure:
2.1) Intracellular Ca^2+ Mobilization Assay (FLIPR)
A monoclonal HEK-293 cell line stably transfected with a cDNA encoding for the human mGlu4 receptor was generated. Cells were cultured according to standard protocols (Freshney, 2000) in Dulbecco's Modified Eagle Medium with high glucose supplemented with 1 mM glutamine, 10% (vol/vol) heat-inactivated bovine calf serum, penicillin/streptomycin, 50 μg/ml hygromycin and 15 μg/ml blasticidin (all cell culture reagents and antibiotics from Invitrogen, Basel, Switzerland).
About 24 hrs before an experiment, 5×10^4 cells/well were seeded in poly-D-lysine coated, black/clear-bottomed 96-well plates. The cells were loaded with 2.5 μM Fluo-4AM in loading buffer (1×HBSS, 20 mM HEPES) for 1 hr at 37° C. and washed five times with loading buffer. The cells were transferred into a Functional Drug Screening System 7000 (Hamamatsu, Paris, France), and 11 half logarithmic serial dilutions of test compound at 37° C. were added and the cells were incubated for 10-30 min. with on-line recording of fluorescence. Following this pre-incubation step, the agonist (2S)-2-amino-4-phosphonobutanoic acid (L-AP4) was added to the cells at a concentration corresponding to EC80 with on-line recording of fluorescence; in order to account for day-to-day variations in the responsiveness of cells, the EC80 of L-AP4 was determined immediately ahead of each experiment by recording of a full dose-response curve of L-AP4.
Responses were measured as peak increase in fluorescence minus basal (i.e. fluorescence without addition of L-AP4), normalized to the maximal stimulatory effect obtained with saturating concentrations of L-AP4. Graphs were plotted with the % maximal stimulatory using XLfit, a curve fitting program that iteratively plots the data using Levenburg Marquardt algorithm. The single site competition analysis equation used was y=A+((B-A)/(1+((x/C)D))), where y is the % maximal stimulatory effect, A is the minimum y, B is the maximum y, C is the IC50, x is the log 10 of the concentration of the competing compound and D is the slope of the curve (the Hill Coefficient). From these curves the IC50 (drug concentration at which 50% of the receptor activation achieved from the addition of L-AP4 in the experiment was inhibited), the Hill coefficient as well as the maximal response in % of the maximal stimulatory effect obtained with saturating concentrations of L-AP4 were calculated (see FIG. 1).

The structures appear in SMILES notation.

Chain of human mGlu4 receptor (Q14833 33-912): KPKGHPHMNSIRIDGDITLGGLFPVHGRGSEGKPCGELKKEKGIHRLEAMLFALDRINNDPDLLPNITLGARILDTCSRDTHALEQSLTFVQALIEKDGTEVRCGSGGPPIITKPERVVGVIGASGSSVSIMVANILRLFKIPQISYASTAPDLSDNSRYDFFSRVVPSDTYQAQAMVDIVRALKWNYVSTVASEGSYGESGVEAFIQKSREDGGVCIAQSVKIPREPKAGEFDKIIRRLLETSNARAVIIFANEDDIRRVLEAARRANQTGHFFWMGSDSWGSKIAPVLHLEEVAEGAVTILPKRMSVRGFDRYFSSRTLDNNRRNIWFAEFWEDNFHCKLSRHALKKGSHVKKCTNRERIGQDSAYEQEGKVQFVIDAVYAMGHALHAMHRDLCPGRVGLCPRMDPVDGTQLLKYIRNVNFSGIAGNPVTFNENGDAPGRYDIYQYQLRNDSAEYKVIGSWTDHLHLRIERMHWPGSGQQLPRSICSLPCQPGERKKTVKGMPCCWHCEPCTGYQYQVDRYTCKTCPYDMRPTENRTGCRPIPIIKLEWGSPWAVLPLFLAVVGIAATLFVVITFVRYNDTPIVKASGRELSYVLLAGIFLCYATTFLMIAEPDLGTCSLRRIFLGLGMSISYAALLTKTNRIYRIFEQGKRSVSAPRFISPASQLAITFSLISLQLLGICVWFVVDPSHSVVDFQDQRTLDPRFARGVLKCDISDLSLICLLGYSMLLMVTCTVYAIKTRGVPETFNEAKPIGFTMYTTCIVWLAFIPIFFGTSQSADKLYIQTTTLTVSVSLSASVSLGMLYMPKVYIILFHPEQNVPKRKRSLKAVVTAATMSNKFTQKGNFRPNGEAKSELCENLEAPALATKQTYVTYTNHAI

As to `O=S(=O)(Nc1c(F)cc(C#Cc2ccccc2)cc1F)c1ccccc1Cl` [Example 1, 2-chloro-N-[2,6-difluoro-4-(2-phenylethynyl)phenyl]benzenesulfonamide], the response was half-maximal at 4.28 µM (EC50). The result for `O=S(=O)(Nc1c(F)cc(C#Cc2ccccc2)cc1F)c1cccc(Cl)c1Cl` [Example 2, 2,3-dichloro-N-[2,6-difluoro-4-(2-phenylethynyl)phenyl]benzenesulfonamide] reads 1.68 µM; that for `O=S(=O)(Nc1c(F)cc(C#Cc2ccccc2)cc1F)c1ccccc1C(F)(F)F` [Example 3, N-[2,6-difluoro-4-(2-phenylethynyl)phenyl]-2-(trifluoromethyl)benzenesulfonamide], 2.81 µM; that for `O=S(=O)(Nc1c(F)cc(C#Cc2ccccc2)cc1F)c1cc(Cl)ccc1Cl` [Example 4, 2,5-dichloro-N-[2,6-difluoro-4-(2-phenylethynyl)phenyl]benzenesulfonamide], 3.43 µM.

On to `Cc1ccccc1S(=O)(=O)Nc1c(F)cc(C#Cc2ccccc2)cc1F` [Example 5, N-[2,6-difluoro-4-(2-phenylethynyl)phenyl]-2-methyl-benzenesulfonamide], for which the EC50 was determined as 3.71 µM. The result for `O=S(=O)(Nc1c(F)cc(C#Cc2ccccc2)cc1F)c1ccccc1F` [Example 6, N-[2,6-difluoro-4-(2-phenylethynyl)phenyl]-2-fluoro-benzenesulfonamide] reads 4.64 µM. For `O=S(=O)(Nc1c(F)cc(C#Cc2ccccc2)cc1F)c1cccnc1` [Example 7, N-[2,6-difluoro-4-(2-phenylethynyl)phenyl]pyridine-3-sulfonamide], the midpoint of the response, the EC50, lay at 4.67 µM. The result for `O=S(=O)(Nc1c(F)cc(C#Cc2ccccc2)cc1F)c1cccc(Cl)c1` [Example 8, 3-chloro-N-[2,6-difluoro-4-(2-phenylethynyl)phenyl]benzenesulfonamide] reads 5.92 µM; that for `O=S(=O)(Nc1c(F)cc(C#Cc2cccnc2)cc1F)c1ccccc1Cl` [Example 9, 2-chloro-N-[2,6-difluoro-4-[2-(3-pyridyl)ethynyl]phenyl]benzenesulfonamide], 14.2 µM. The result for `O=S(=O)(Nc1c(F)cc(C#Cc2ccccc2)cc1F)c1ccccn1` [Example 10, N-[2,6-difluoro-4-(2-phenylethynyl)phenyl]pyridine-2-sulfonamide] reads 14.3 µM; that for `O=S(=O)(Nc1c(F)cc(C#Cc2ccccc2)cc1F)c1ccc(Cl)cc1Cl` [Example 11, 2,4-dichloro-N-[2,6-difluoro-4-(2-phenylethynyl)phenyl]benzenesulfonamide], 15.7 µM; that for `O=S(=O)(Nc1c(F)cc(C#Cc2cncc(F)c2)cc1F)c1ccccc1Cl` [Example 12, 2-chloro-N-[2,6-difluoro-4-[2-(5-fluoro-3-pyridyl)ethynyl]phenyl]benzenesulfonamide], 2.96 µM.

Compound `O=S(=O)(Nc1c(F)cc(C#Cc2cncc(F)c2)cc1F)c1cccc(Cl)c1Cl` [Example 13, 2,3-dichloro-N-[2,6-difluoro-4-[2-(5-fluoro-3-pyridyl)ethynyl]phenyl]benzenesulfonamide] registered an EC50 of 0.556 µM. The result for `O=S(=O)(Nc1c(F)cc(C#Cc2cncc(F)c2)cc1F)c1cccc(Cl)c1` [Example 14, 3-chloro-N-[2,6-difluoro-4-[2-(5-fluoro-3-pyridyl)ethynyl]phenyl]benzenesulfonamide] reads 1.05 µM. The result for `COc1c(Cl)cccc1S(=O)(=O)Nc1c(F)cc(C#Cc2cncc(F)c2)cc1F` [Example 15, 3-chloro-N-[2,6-difluoro-4-[2-(5-fluoro-3-pyridyl)ethynyl]phenyl]-2-methoxy-benzenesulfonamide] reads 0.778 µM; that for `Cc1cccc(S(=O)(=O)Nc2c(F)cc(C#Cc3ccccc3)cc2F)c1Cl` [Example 16, 2-chloro-N-[2,6-difluoro-4-(2-phenylethynyl)phenyl]-3-methyl-benzenesulfonamide], 1.56 µM. `O=S(=O)(Nc1c(F)cc(C#Cc2ccccc2)cc1F)c1cccc(F)c1Cl` [Example 17, 2-chloro-N-[2,6-difluoro-4-(2-phenylethynyl)phenyl]-3-fluoro-benzenesulfonamide] displayed a half-maximal effective concentration (EC50) of 0.734 µM. The result for `COc1ccc(Cl)c(S(=O)(=O)Nc2c(F)cc(C#Cc3ccccc3)cc2F)c1` [Example 18, 2-chloro-N-[2,6-difluoro-4-(2-phenylethynyl)phenyl]-5-methoxy-benzenesulfonamide] reads 3.94 µM; that for `Cc1ccc(Cl)c(S(=O)(=O)Nc2c(F)cc(C#Cc3ccccc3)cc2F)c1` [Example 19, 2-chloro-N-[2,6-difluoro-4-(2-phenylethynyl)phenyl]-5-methyl-benzenesulfonamide], 1.26 µM.

As for `Cc1c(Cl)cccc1S(=O)(=O)Nc1c(F)cc(C#Cc2ccccc2)cc1F` [Example 20, 3-chloro-N-[2,6-difluoro-4-(2-phenylethynyl)phenyl]-2-methyl-benzenesulfonamide], the EC50 worked out at 1.07 µM.

The compound `O=S(=O)(Nc1c(F)cc(C#Cc2ccccc2)cc1F)c1cccc(Cl)c1C(F)(F)F` [Example 21, 3-chloro-N-[2,6-difluoro-4-(2-phenylethynyl)phenyl]-2-(trifluoromethyl)benzenesulfonamide] gave an EC50 of 15.3 µM. The result for `O=S(=O)(Nc1c(F)cc(C#Cc2ccccc2)cc1F)c1cccnc1Cl` [Example 22, 2-chloro-N-[2,6-difluoro-4-(2-phenylethynyl)phenyl]pyridine-3-sulfonamide] reads 4.33 µM; that for `O=S(=O)(Nc1c(F)cc(C#Cc2ccccc2)cc1F)c1cncc(Cl)c1` [Example 23, 5-chloro-N-[2,6-difluoro-4-(2-phenylethynyl)phenyl]pyridine-3-sulfonamide], 3.11 µM; that for `O=S(=O)(Nc1c(F)cc(C#Cc2ccccc2)cc1F)c1cncc(F)c1` [Example 24, N-[2,6-difluoro-4-(2-phenylethynyl)phenyl]-5-fluoropyridine-3-sulfonamide], 2.05 µM. The result for `Cn1nccc1S(=O)(=O)Nc1c(F)cc(C#Cc2ccccc2)cc1F` [Example 25, N-[2,6-difluoro-4-(2-phenylethynyl)phenyl]-1-methyl-1H-pyrazole-5-sulfonamide] reads 1.06 µM; that for `Cn1ccc(S(=O)(=O)Nc2c(F)cc(C#Cc3ccccc3)cc2F)n1` [Example 26, N-[2,6-difluoro-4-(2-phenylethynyl)phenyl]-1-methyl-pyrazole-3-sulfonamide], 16 µM; that for `COc1cccc(S(=O)(=O)Nc2c(F)cc(C#Cc3ccccc3)cc2F)c1Cl` [Example 27, 2-chloro-N-[2,6-difluoro-4-(2-phenylethynyl)phenyl]-3-methoxy-benzenesulfonamide], 8.43 µM. As for `Cc1c(C(F)(F)F)cccc1S(=O)(=O)Nc1c(F)cc(C#Cc2ccccc2)cc1F` [Example 28, N-[2,6-difluoro-4-(2-phenylethynyl)phenyl]-2-methyl-3-(trifluoromethyl)benzenesulfonamide], the response was half-maximal at 1.95 µM (EC50).

Consider `Cc1ncccc1S(=O)(=O)Nc1c(F)cc(C#Cc2ccccc2)cc1F` [Example 29, N-[2,6-difluoro-4-(2-phenylethynyl)phenyl]-2-methyl-pyridine-3-sulfonamide], for which the midpoint of the response, the EC50, lay at 2.89 µM.

On to `Cc1ccc(C)c(S(=O)(=O)Nc2c(F)cc(C#Cc3ccccc3)cc2F)c1` [Example 30, N-[2,6-difluoro-4-(2-phenylethynyl)phenyl]-2,5-dimethyl-benzenesulfonamide], for which the concentration for a half-maximal effect (EC50) came to 1.34 µM. The result for `Cc1ccncc1S(=O)(=O)Nc1c(F)cc(C#Cc2ccccc2)cc1F` [Example 31, N-[2,6-difluoro-4-(2-phenylethynyl)phenyl]-4-methyl-pyridine-3-sulfonamide] reads 1.4 µM. The result for `COCc1c(Cl)cccc1S(=O)(=O)Nc1c(F)cc(C#Cc2ccccc2)cc1F` [Example 32, 3-chloro-N-[2,6-difluoro-4-(2-phenylethynyl)phenyl]-2-(methoxymethyl)benzenesulfonamide] reads 3.88 µM; that for `O=S(=O)(Nc1c(F)cc(C#Cc2ccccc2)cc1F)c1cccc(C(F)(F)F)c1Cl` [Example 33, 2-chloro-N-[2,6-difluoro-4-(2-phenylethynyl)phenyl]-3-(trifluoromethyl)benzenesulfonamide], 2.08 µM; that for `O=S(=O)(Nc1c(F)cc(C#Cc2ccccc2)cc1F)c1cccc2ncoc12` [Example 34, N-[2,6-difluoro-4-(2-phenylethynyl)phenyl]-1,3-benzoxazole-7-sulfonamide], 6.56 µM. The result for `O=S(=O)(Nc1c(F)cc(C#Cc2ccccc2)cc1F)c1cccc(Cl)c1F` [Example 35, 3-chloro-N-[2,6-difluoro-4-(2-phenylethynyl)phenyl]-2-fluoro-benzenesulfonamide] reads 1.61 µM.
